Measured values as given in patent publication US10485236B2, “Triazole derivatives, intermediates thereof and their use as fungicides” (Bayer CropScience Aktiengesellschaft, priority 2015, dated 2019).
Marks after values point to notes of the source that are not given here.

Test: Measurement of LogP values by HPLC on reversed phase columns (EEC directive 79/831 Annex V.A8)
Assay type: physicochemical
Details: for chromatographic logP: reversed phase HPLC column
Description: [table] If more than one Log P value is available within the same method, all the values are given and separated by “+”. Calibration was done with straight-chain alkan2-ones (with 3 to 16 carbon atoms) with known Log P values (measurement of Log P values using retention times with linear interpolation between successive alkanones). Lambda-max-values were determined using UV-spectra from 200 nm to 400 nm and the peak values of the chromatographic signals.

[1] = method [a]: LC-UV, acidic range, 0.1% formic acid in water and acetonitrile as eluent

Row | Compound | LogP | further results
1 | O=C(Cn1cncn1)c1ccc(Oc2ccc(Cl)cc2Cl)nc1Cl [VII.16] | 3.02^[a] | –
2 | OC(Cn1cncn1)c1ccc(Oc2ccc(Br)cc2)nc1C(F)F (stereo not shown) [I.73] | 2.50^[a] | –
3 | CC(=O)c1ccc(Oc2ccc(Cl)cc2)nc1C(F)(F)F [V.01, 1-[6-(4-chlorophenoxy)-2-(trifluoromethyl)-3-pyridyl]ethanone] | – | chromatographic logP [1]: 3.8
4 | CC(=O)c1cnc(Oc2ccc(C(F)(F)F)cc2)cc1C(F)(F)F [V.25] | 4.04^[a] | –
5 | O=C(c1ccc(Oc2ccc(Cl)cc2)nc1C(F)(F)F)C1CC1 [V.41, [6-(4-chlorophenoxy)-2-(trifluoromethyl)-3-pyridyl]-cyclopropyl-methanone] | – | chromatographic logP [1]: 4.17
6 | OC(Cn1cncn1)(c1ccc(Oc2ccc(S(F)(F)(F)(F)F)cc2)nc1C(F)(F)F)C1CC1 (stereo not shown) [I.97] | 3.80^[a] | –
7 | CC(O)(Cn1cncn1)c1ccc(Oc2ccc(Br)cc2)nc1C(F)(F)F (single isomer, unassigned) [I.102] | 2.94^[a] | –
8 | O=C(Cn1cncn1)c1cnc(Oc2ccc(Cl)cc2)cc1C(F)F [VII.36] | 2.51^[a] | –
9 | FC(F)(F)c1ccc(Oc2ccc(C3(C4CC4)CO3)c(C(F)(F)F)n2)cc1 (stereo not shown) [IX.11] | 5.00^[a] | –
10 | OC(Cn1cncn1)c1cnc(Oc2ccc(Cl)cc2)cc1C(F)F (stereo not shown) [I.94] | 2.13^[a] | –
11 | OC(Cn1cncn1)c1ccc(Oc2ccccc2F)nc1Cl (racemic) [I.19] | 2.08^[a] | –
12 | OC(Cn1cncn1)c1ccc(Oc2ccc(Cl)cc2F)nc1C(F)(F)F (stereo not shown) [I.90] | 2.88^[a] | –
13 | CC(=O)c1cnc(Oc2ccc(OC(F)(F)F)cc2)cc1C(F)(F)F [V.15] | 4.20^[a] | –
14 | C=CC(O)(Cn1cncn1)c1cnc(Oc2ccc(C(F)(F)F)cc2)cc1C(F)(F)F (stereo not shown) [I.69] | 3.33^[a] | –
15 | O=C(Cn1cncn1)c1cnc(Oc2ccc(Br)cc2)cc1C(F)(F)F [VII.27] | 3.02^[a] | –
16 | OC(Cn1cncn1)c1ccc(Oc2ccccc2)nc1Cl (racemic) [I.13] | 1.98^[a] | –
17 | O=C(Cn1cncn1)c1cnc(Oc2ccc(Br)cc2)cc1C(F)F [VII.41] | 2.61^[a] | –
18 | CC(O)(Cn1cncn1)c1ccc(Oc2ccc(Cl)c(Cl)c2)nc1Cl (racemic) [I.32] | 3.09^[a] | –
19 | CC(O)(Cn1cncn1)c1cnc(Oc2ccc(C(F)(F)F)cc2)cc1Cl (stereo not shown) [I.78] | 2.88^[a] | –
20 | O=C(CCl)c1ccc(Oc2ccccc2)nc1Cl [VI.03] | 3.23^[a] | –
21 | CC(O)c1ccc(Oc2ccc(C(O)Cn3cncn3)c(Cl)n2)cc1 (mixture of isomers) [I.24] | 1.48^[a] | –
22 | CC(=O)c1ncc(Oc2ccc(Cl)cc2)nc1Oc1ccc(Cl)cc1 [V.33] | 4.36^[a] | –
23 | CC(=O)c1ccc(Oc2ccc(Cl)c(Cl)c2)nc1Cl [V.11] | 4.10^[a] | –
24 | O=C(Cn1cncn1)c1ccc(Oc2ccc(OC(F)(F)F)c(Cl)c2)nc1Cl [VII.04] | 3.33^[a] | –

Row | Compound | LogP | further results
25 | O=C(Cn1cncn1)c1cnc(Oc2ccc(C(F)(F)F)cc2)cc1Cl [VII.40] | 2.92^[a] | –
26 | FC(F)(F)c1nc(Oc2ccc(Cl)cc2)ccc1C1(C2CC2)CO1 (stereo not shown) [IX.07, 6-(4-chlorophenoxy)-3-(2-cyclopropyloxiran-2-yl)-2-(trifluoromethyl)pyridine] | – | chromatographic logP [1]: 4.8
27 | OC(Cn1cncn1)(c1ccc(Oc2ccc(Br)cc2)nc1C(F)(F)F)C(F)(F)F (stereo not shown) [I.85] | 3.48^[a] | –
28 | CC(O)(Cn1cncn1)c1cnc(Oc2ccc(Br)cc2)cc1C(F)(F)F (stereo not shown) [I.49] | 2.96^[a] | –
29 | OC(Cn1cncn1)c1ccc(Oc2ccc(OC(F)(F)F)cc2)nc1C(F)(F)F (stereo not shown) [I.79] | 2.89^[a] | –
30 | OC(Cn1cncn1)c1ccc(Oc2ccc(C(F)(F)F)cc2)nc1C(F)(F)F (stereo not shown) [I.61] | 2.84^[a] | –
31 | CC(O)(Cn1cncn1)c1ccc(Oc2ccc(Br)cc2)nc1C(F)(F)F (single isomer, unassigned) [I.101] | 2.94^[a] | –
32 | CC(O)(Cn1cncn1)c1ccc(Oc2ccc(Br)cc2)nc1C(F)(F)F (racemic) [I.59] | 2.94^[a] | –
33 | OC(Cn1cncn1)c1cnc(Oc2ccc(Br)cc2)cc1C(F)(F)F (stereo not shown) [I.48] | 2.75^[a] | –
34 | OC(Cn1cncn1)c1cnc(Oc2ccccc2)cc1Cl (racemic) [I.21] | 1.92^[a] | –
35 | OC(Cn1cncn1)c1ccc(Oc2ccc(F)cc2)nc1Cl (racemic) [I.17] | 2.08^[a] | –
36 | O=C(Cn1cncn1)c1ccc(Oc2ccc(Br)cc2)nc1C(F)F [VII.35] | 2.68^[a] | –
37 | CC(O)(Cn1cncn1)c1ccc(Oc2ccc(S(F)(F)(F)(F)F)cc2)nc1C(F)(F)F (stereo not shown) [I.62] | 3.25^[a] | –
38 | CC(O)(Cn1cncn1)c1cnc(Oc2ccc(OC(F)(F)F)cc2)cc1C(F)(F)F (stereo not shown) [I.44] | 3.23^[a] | –
39 | OC(Cn1cncn1)c1ncc(Oc2ccccc2)cc1Cl (racemic) [I.22] | 2.01^[a] | –
40 | CC(O)(Cn1cncn1)c1ccc(Oc2ccc(OC(F)(F)F)cc2)nc1C(F)(F)F (stereo not shown) [I.95] | 2.98^[a] | –
41 | OC(Cn1cncn1)c1ccc(Oc2cc(F)c(F)c(F)c2)nc1Cl (racemic) [I.20] | 1.65^[a] | –
42 | OC(Cn1cncn1)c1cnc(Oc2ccc(Br)cc2)cc1C(F)F (stereo not shown) [I.63] | 2.59^[a] | –
43 | CC(O)(Cn1cncn1)c1ccc(Oc2ccc(Cl)cc2)nc1Cl (single isomer, unassigned) [I.51] | 2.62^[a] | –
44 | CC(O)(Cn1cncn1)c1ccc(Oc2ccc(F)cc2)nc1Cl (racemic) [I.27] | 2.28^[a] | –
45 | OC(Cn1cncn1)c1cnc(Oc2ccc(S(F)(F)(F)(F)F)cc2)cc1C(F)(F)F (single isomer, unassigned) [I.83] | 3.11^[a] | –
46 | O=C(Cn1cncn1)c1cnc(Oc2ccc(Cl)cc2F)cc1C(F)(F)F [VII.30] | 3.06^[a] | –
47 | O=C(CCl)c1ccc(Oc2ccc(Cl)cc2)nc1C(F)(F)F [VI.01, 2-chloro-1-[6-(4-chlorophenoxy)-2-(trifluoromethyl)-3-pyridyl]ethanone] | – | chromatographic logP (method [a], compounds of formula (VI), Table 3): 4.01
48 | O=C(Cn1cncn1)c1cnc(Oc2ccc(C(F)F)cc2)cc1C(F)(F)F [VII.29] | 2.80^[a] | –

Further lines, with some results ahead:

Row | LogP | Compound | further results
49 | 4.29^[a] | O=C(CBr)c1cnc(Oc2ccc(Cl)cc2)cc1C(F)(F)F [VI.14] | –
50 | 2.41^[a] | O=C(Cn1cncn1)c1ccc(Oc2ccc(C(F)F)cc2)nc1C(F)(F)F [VII.42] | –
51 | 3.51^[a] | CC(=O)c1cnc(Oc2ccc(Cl)cc2)cc1Cl [V.22] | –
52 | 4.51^[a] | O=C(CCl)c1ccc(Oc2ccc(Cl)cc2)nc1OC(F)(F)F [VI.12] | –
53 | 4.49^[a] | FC(F)c1ccc(Oc2ccc(C3(C4CC4)CO3)c(C(F)(F)F)n2)cc1 (stereo not shown) [IX.05] | –
54 | 3.78^[a] | O=C(CCl)c1ncc(Oc2ccc(Cl)cc2)nc1Cl [VI.10] | –
55 | 3.57^[a] | CC(=O)c1cnc(Oc2ccc(Cl)cc2)cc1C(F)F [V.37] | –
56 | 4.29^[a] | O=C(CCl)c1ccc(Oc2ccc(S(F)(F)(F)(F)F)cc2)nc1C(F)(F)F [VI.29] | –
57 | 4.44^[a] | CC1(c2ccc(Oc3ccc(Cl)cc3)nc2C(F)(F)F)CO1 (stereo not shown) [IX.06] | –
58 | 4.11^[a] | O=C(CCl)c1ccc(Oc2ccc(Br)cc2)nc1C(F)(F)F [VI.19] | –
59 | 4.16^[a] | O=C(CCl)c1cnc(Oc2ccc(Br)cc2)cc1C(F)(F)F [VI.23] | –
60 | 4.26^[a] | O=C(CCl)c1ccc(Oc2c(F)cc(Cl)cc2F)nc1C(F)(F)F [VI.31] | –
61 | 3.35^[a] | CC(C)c1ccc(Oc2ccc(C(C)(O)Cn3cncn3)c(C(F)(F)F)n2)cc1 (stereo not shown) [I.75] | –
62 | 4.04^[a] | CC(=O)c1ccc(Oc2ccc(OC(F)(F)F)cc2)nc1C(F)(F)F [V.35] | –
63 | 3.55^[a] | CCCC(O)(Cn1cncn1)c1ccc(Oc2ccc(Cl)cc2)nc1C(F)(F)F (stereo not shown) [I.100] | –
64 | 3.26^[a] | CC(=O)c1ccc(Oc2ccc(C(F)F)cc2)nc1C(F)(F)F [V.32] | –
65 | 3.69^[a] | O=C(CCl)c1ccc(Oc2ccc(Cl)cc2)nc1F [VI.20] | –
66 | 3.87^[a] | CC(=O)c1cnc(Oc2ccc(C(F)(F)F)cc2)cc1Cl [V.18] | –
67 | 4.98^[a] | CC(C)CC(=O)c1ccc(Oc2ccc(Cl)cc2)nc1C(F)(F)F [V.47] | –

Row | LogP | Compound | further results
68 | 2.93^[a] | CC(O)(Cn1cncn1)c1cnc(Oc2ccc(Cl)cc2)cc1C(F)(F)F (single isomer, unassigned) [I.46] | –
69 | 4.19^[a] | O=C(CBr)c1ccc(Oc2ccc(Cl)cc2)nc1C(F)(F)F [VI.34] | –
70 | 3.11^[a] | CC(=O)c1cnc(Oc2ccc(Cl)cc2)cc1C(C)=O [V.19] | –
71 | 2.74^[a] | O=C(Cn1cncn1)c1ccc(Oc2ccc(Cl)cc2F)nc1C(F)(F)F [VII.37] | –
72 | 3.80^[a] | O=C(c1ccc(Oc2ccc(C(F)F)cc2)nc1C(F)(F)F)C1CC1 [V.44] | –
73 | 2.39^[a] | O=C(Cn1cncn1)c1ccc(Oc2ccc(C(F)F)cc2)nc1Cl [VII.22] | –
74 | 4.67^[a] | O=C(c1ccc(Oc2ccc(S(F)(F)(F)(F)F)cc2)nc1C(F)(F)F)C1CC1 [V.43] | –
75 | 4.49^[a] | O=C(c1ccc(Oc2ccc(Br)cc2)nc1C(F)(F)F)C1CC1 [V.40] | –
76 | 4.09^[a] | O=C(CCl)c1ccc(Oc2ccc(OC(F)(F)F)cc2)nc1Cl [VI.08] | –
77 | 3.51^[a] | CC(=O)c1ncc(Oc2ccc(Cl)cc2)nc1Cl [V.23] | –
78 | 4.07^[a] | O=C(CCl)c1ccc(Oc2ccc(OC(F)(F)F)cc2)nc1C(F)(F)F [VI.33] | –
79 | 4.37^[a] | O=C(c1ccc(Oc2ccc(C(F)(F)F)cc2)nc1C(F)(F)F)C1CC1 [V.39] | –
80 | 2.82^[a] | OC(Cn1cncn1)c1ccc(Oc2ccc(Br)cc2)nc1C(F)(F)F (stereo not shown) [I.40] | –
81 | 3.04^[a] | O=C(Cn1cncn1)c1ccc(Oc2ccc(C(F)(F)F)cc2)nc1C(F)(F)F [VII.32] | –
82 | 2.66^[a] | O=C(Cn1cncn1)c1ccc(Oc2ccc(Cl)cc2)nc1Cl [VII.09] | –
83 | 4.09^[a] | CC(=O)c1ccc(Oc2ccc(S(F)(F)(F)(F)F)cc2)nc1C(F)(F)F [V.16] | –
84 | 3.87^[a] | CCCCC(O)(Cn1cncn1)c1ccc(Oc2ccc(Cl)cc2)nc1C(F)(F)F (stereo not shown) [I.98] | –
85 | 2.44^[a] | OC(Cn1cncn1)c1ccc(Oc2ccc(Cl)cc2)nc1C(F)F (racemic) [I.25] | –
